Results from patent US9695155B2, “Herbicidal substituted pyrimidinyloxy benzene compounds” (E. I. DU PONT DE NEMOURS AND COMPANY, priority 2013, dated 2017).

Legend:
Assay in all cases: Test E postemergence
dayflower = assay type: in vivo, Commelina virginica
Outline: (§1)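 Test chemicals formulated in a non-phytotoxic solvent mixture containing a surfactant were applied preemergence to seeds in silt loam soil or postemergence to plants at the 1- to 4-leaf stage in potting mix. After 14 to 21 days in a greenhouse, injury was visually rated against controls on a 0-100 scale (0 = no effect, 100 = complete control).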

fall panicum = assay type: in vivo, Panicum dichotomiflorum
Outline: as §1

waterhemp = assay type: in vivo, Amaranthus rudis
Outline: as §1

[1] = system: waterhemp_RES2 (ALS & HPPD resistant common waterhemp); assay type: in vivo, Amaranthus rudis
Outline: as §1

[2] = system: waterhemp_RES1 (ALS & Triazine resistant common waterhemp); assay type: in vivo, Amaranthus rudis
Outline: as §1

arrowleaf sida = assay type: in vivo, Sida rhombifolia
Outline: as §1

sandbur = assay type: in vivo, Cenchrus echinatus
Outline: as §1

soybean = assay type: in vivo, Glycine max
Outline: as §1

hairy beggarticks = assay type: in vivo, Bidens pilosa
Outline: as §1

[3] = Postemergence, 31 g ai/ha, scale 0 to 100
[4] = Postemergence, 62 g ai/ha, scale 0 to 100
[5] = Postemergence, 125 g ai/ha, scale 0 to 100
[6] = postemergence, 8 g ai/ha, scale 0 to 100, 0 no effect, 100 complete control
[7] = postemergence, 16 g ai/ha, scale 0 to 100, 0 no effect, 100 complete control

N#Cc1cccc(Oc2ncc(Cl)cn2)c1-n1cc(OCC(F)(F)F)cn1 [Compound 274, 3-[(5-chloro-2-pyrimidinyl)oxy]-2-[4-(2,2,2-trifluoroethoxy)-1H-pyrazol-1-yl]benzonitrile]
pest or weed control at 31 g/ha (dayflower; Commelina virginica, post-emergence, Postemergence, 31 g ai/ha, scale 0 to 100, read-out: Plant response rating, Dayflower, VA): 20%
pest or weed control at 62 g/ha (dayflower; Commelina virginica, post-emergence, Postemergence, 62 g ai/ha, scale 0 to 100, read-out: Plant response rating, Dayflower, VA): 40%
pest or weed control at 125 g/ha (dayflower; Commelina virginica, post-emergence, Postemergence, 125 g ai/ha, scale 0 to 100, read-out: Plant response rating, Dayflower, VA): 70%
pest or weed control at 8 g/ha (dayflower; Commelina virginica, post-emergence, postemergence, 8 g ai/ha, scale 0 to 100, 0 no effect, 100 complete control, read-out: Plant response rating, Dayflower, VA): 5%
pest or weed control at 16 g/ha (dayflower; Commelina virginica, post-emergence, postemergence, 16 g ai/ha, scale 0 to 100, 0 no effect, 100 complete control, read-out: Plant response rating, Dayflower, VA): 10%
pest or weed control at 31 g/ha (fall panicum; Panicum dichotomiflorum, post-emergence, Postemergence, 31 g ai/ha, scale 0 to 100, read-out: Plant response rating, Panicum, Fall): 20%
pest or weed control at 62 g/ha (fall panicum; Panicum dichotomiflorum, post-emergence, Postemergence, 62 g ai/ha, scale 0 to 100, read-out: Plant response rating, Panicum, Fall): 50%
pest or weed control at 125 g/ha (fall panicum; Panicum dichotomiflorum, post-emergence, Postemergence, 125 g ai/ha, scale 0 to 100, read-out: Plant response rating, Panicum, Fall): 20%
pest or weed control at 8 g/ha (fall panicum; Panicum dichotomiflorum, post-emergence, postemergence, 8 g ai/ha, scale 0 to 100, 0 no effect, 100 complete control, read-out: Plant response rating, Panicum, Fall): 10%
pest or weed control at 16 g/ha (fall panicum; Panicum dichotomiflorum, post-emergence, postemergence, 16 g ai/ha, scale 0 to 100, 0 no effect, 100 complete control, read-out: Plant response rating, Panicum, Fall): 15%
pest or weed control at 31 g/ha (waterhemp; Amaranthus tuberculatus, post-emergence, Postemergence, 31 g ai/ha, scale 0 to 100, read-out: Plant response rating, Waterhemp): 90%
pest or weed control at 62 g/ha (waterhemp; Amaranthus tuberculatus, post-emergence, Postemergence, 62 g ai/ha, scale 0 to 100, read-out: Plant response rating, Waterhemp): 95%
pest or weed control at 125 g/ha (waterhemp; Amaranthus tuberculatus, post-emergence, Postemergence, 125 g ai/ha, scale 0 to 100, read-out: Plant response rating, Waterhemp): 98%
pest or weed control at 8 g/ha (waterhemp; Amaranthus tuberculatus, post-emergence, postemergence, 8 g ai/ha, scale 0 to 100, 0 no effect, 100 complete control, read-out: Plant response rating, Waterhemp): 70%
pest or weed control at 16 g/ha (waterhemp; Amaranthus tuberculatus, post-emergence, postemergence, 16 g ai/ha, scale 0 to 100, 0 no effect, 100 complete control, read-out: Plant response rating, Waterhemp): 95%
pest or weed control at 31 g/ha ([1]; Amaranthus tuberculatus, post-emergence, Postemergence, 31 g ai/ha, scale 0 to 100, read-out: Plant response rating, Waterhemp_RES2): 85%
pest or weed control at 62 g/ha ([1]; Amaranthus tuberculatus, post-emergence, Postemergence, 62 g ai/ha, scale 0 to 100, read-out: Plant response rating, Waterhemp_RES2): 95%
pest or weed control at 125 g/ha ([1]; Amaranthus tuberculatus, post-emergence, Postemergence, 125 g ai/ha, scale 0 to 100, read-out: Plant response rating, Waterhemp_RES2): 100%
pest or weed control at 16 g/ha ([1]; Amaranthus tuberculatus, post-emergence, postemergence, 16 g ai/ha, scale 0 to 100, 0 no effect, 100 complete control, read-out: Plant response rating, Waterhemp_RES2): 80%
Plant response rating, Waterhemp_RES1 [2, 3]: 80
Plant response rating, Waterhemp_RES1 [2, 4]: 90
Plant response rating, Waterhemp_RES1 [2, 5]: 100
Plant response rating, Waterhemp_RES1 [2, 6]: 60
Plant response rating, Waterhemp_RES1 [2, 7]: 75
pest or weed control at 31 g/ha (arrowleaf sida; Sida rhombifolia, post-emergence, Postemergence, 31 g ai/ha, scale 0 to 100, read-out: Plant response rating, Arrowleaf Sida): 60%
pest or weed control at 62 g/ha (arrowleaf sida; Sida rhombifolia, post-emergence, Postemergence, 62 g ai/ha, scale 0 to 100, read-out: Plant response rating, Arrowleaf Sida): 75%
pest or weed control at 125 g/ha (arrowleaf sida; Sida rhombifolia, post-emergence, Postemergence, 125 g ai/ha, scale 0 to 100, read-out: Plant response rating, Arrowleaf Sida): 85%
pest or weed control at 8 g/ha (arrowleaf sida; Sida rhombifolia, post-emergence, postemergence, 8 g ai/ha, scale 0 to 100, 0 no effect, 100 complete control, read-out: Plant response rating, Arrowleaf Sida): 55%
pest or weed control at 16 g/ha (arrowleaf sida; Sida rhombifolia, post-emergence, postemergence, 16 g ai/ha, scale 0 to 100, 0 no effect, 100 complete control, read-out: Plant response rating, Arrowleaf Sida): 75%
pest or weed control at 31 g/ha (sandbur; Cenchrus echinatus, post-emergence, Postemergence, 31 g ai/ha, scale 0 to 100, read-out: Plant response rating, Sandbur): 10%
pest or weed control at 62 g/ha (sandbur; Cenchrus echinatus, post-emergence, Postemergence, 62 g ai/ha, scale 0 to 100, read-out: Plant response rating, Sandbur): 15%
pest or weed control at 125 g/ha (sandbur; Cenchrus echinatus, post-emergence, Postemergence, 125 g ai/ha, scale 0 to 100, read-out: Plant response rating, Sandbur): 0%
pest or weed control at 8 g/ha (sandbur; Cenchrus echinatus, post-emergence, postemergence, 8 g ai/ha, scale 0 to 100, 0 no effect, 100 complete control, read-out: Plant response rating, Sandbur): 0%
pest or weed control at 16 g/ha (sandbur; Cenchrus echinatus, post-emergence, postemergence, 16 g ai/ha, scale 0 to 100, 0 no effect, 100 complete control, read-out: Plant response rating, Sandbur): 0%
plant response (crop injury) rating, soybean, 0-100 scale at 31 g/ha (soybean; Glycine max, post-emergence, Postemergence, 31 g ai/ha, scale 0 to 100): 75%
plant response (crop injury) rating, soybean, 0-100 scale at 62 g/ha (soybean; Glycine max, post-emergence, Postemergence, 62 g ai/ha, scale 0 to 100): 95%
plant response (crop injury) rating, soybean, 0-100 scale at 125 g/ha (soybean; Glycine max, post-emergence, Postemergence, 125 g ai/ha, scale 0 to 100): 95%
plant response (crop injury) rating, soybean, 0-100 scale at 8 g/ha (soybean; Glycine max, post-emergence, postemergence, 8 g ai/ha, scale 0 to 100, 0 no effect, 100 complete control): 20%
plant response (crop injury) rating, soybean, 0-100 scale at 16 g/ha (soybean; Glycine max, post-emergence, postemergence, 16 g ai/ha, scale 0 to 100, 0 no effect, 100 complete control): 35%
pest or weed control at 31 g/ha (hairy beggarticks; Bidens pilosa, post-emergence, Postemergence, 31 g ai/ha, scale 0 to 100, read-out: Plant response rating, Beggarticks): 60%
pest or weed control at 62 g/ha (hairy beggarticks; Bidens pilosa, post-emergence, Postemergence, 62 g ai/ha, scale 0 to 100, read-out: Plant response rating, Beggarticks): 70%
pest or weed control at 125 g/ha (hairy beggarticks; Bidens pilosa, post-emergence, Postemergence, 125 g ai/ha, scale 0 to 100, read-out: Plant response rating, Beggarticks): 95%
pest or weed control at 8 g/ha (hairy beggarticks; Bidens pilosa, post-emergence, postemergence, 8 g ai/ha, scale 0 to 100, 0 no effect, 100 complete control, read-out: Plant response rating, Beggarticks): 30%
pest or weed control at 16 g/ha (hairy beggarticks; Bidens pilosa, post-emergence, postemergence, 16 g ai/ha, scale 0 to 100, 0 no effect, 100 complete control, read-out: Plant response rating, Beggarticks): 50%

Clc1cnc(Oc2cccc(Cl)c2-n2cc(I)cn2)nc1 [Compound 181]
Plant response rating, Dayflower, VA (dayflower; [3]): 30
Plant response rating, Dayflower, VA (dayflower; [4]): 40
Plant response rating, Dayflower, VA (dayflower; [5]): 60
Plant response rating, Dayflower, VA (dayflower; [7]): 20
Plant response rating, Panicum, Fall (fall panicum; [3]): 20
Plant response rating, Panicum, Fall (fall panicum; [4]): 50
Plant response rating, Panicum, Fall (fall panicum; [5]): 30
Plant response rating, Panicum, Fall (fall panicum; [7]): 20
Plant response rating, Waterhemp (waterhemp; [3]): 95
Plant response rating, Waterhemp (waterhemp; [4]): 95
Plant response rating, Waterhemp (waterhemp; [5]): 98
Plant response rating, Waterhemp (waterhemp; [7]): 65
Plant response rating, Waterhemp_RES2 [1, 3]: 95
Plant response rating, Waterhemp_RES2 [1, 4]: 98
Plant response rating, Waterhemp_RES2 [1, 5]: 100
Plant response rating, Waterhemp_RES2 [1, 7]: 85
Plant response rating, Waterhemp_RES1 [2, 3]: 95
Plant response rating, Waterhemp_RES1 [2, 4]: 90
Plant response rating, Waterhemp_RES1 [2, 5]: 95
Plant response rating, Waterhemp_RES1 [2, 7]: 90
Plant response rating, Arrowleaf Sida (arrowleaf sida; [3]): 75
Plant response rating, Arrowleaf Sida (arrowleaf sida; [4]): 70
Plant response rating, Arrowleaf Sida (arrowleaf sida; [5]): 95
Plant response rating, Arrowleaf Sida (arrowleaf sida; [7]): 60
Plant response rating, Sandbur (sandbur; [3]): 15
Plant response rating, Sandbur (sandbur; [4]): 10
Plant response rating, Sandbur (sandbur; [5]): 20
Plant response rating, Sandbur (sandbur; [7]): 5
Plant response rating, Soybean (soybean; [3]): 80
Plant response rating, Soybean (soybean; [4]): 90
Plant response rating, Soybean (soybean; [5]): 95
Plant response rating, Soybean (soybean; [7]): 50
Plant response rating, Beggarticks (hairy beggarticks; [3]): 40
Plant response rating, Beggarticks (hairy beggarticks; [4]): 50
Plant response rating, Beggarticks (hairy beggarticks; [5]): 60
Plant response rating, Beggarticks (hairy beggarticks; [7]): 40

Clc1cnc(Oc2ccccc2-n2cc(Br)nn2)nc1 [Compound 223]
Plant response rating, Dayflower, VA (dayflower; [3]): 25
Plant response rating, Dayflower, VA (dayflower; [4]): 55
Plant response rating, Dayflower, VA (dayflower; [5]): 65
Plant response rating, Dayflower, VA (dayflower; [6]): 0
Plant response rating, Dayflower, VA (dayflower; [7]): 0
Plant response rating, Panicum, Fall (fall panicum; [3]): 0
Plant response rating, Panicum, Fall (fall panicum; [4]): 0
Plant response rating, Panicum, Fall (fall panicum; [5]): 0
Plant response rating, Panicum, Fall (fall panicum; [6]): 0
Plant response rating, Panicum, Fall (fall panicum; [7]): 0
Plant response rating, Waterhemp (waterhemp; [3]): 70
Plant response rating, Waterhemp (waterhemp; [4]): 85
Plant response rating, Waterhemp (waterhemp; [5]): 98
Plant response rating, Waterhemp (waterhemp; [6]): 60
Plant response rating, Waterhemp (waterhemp; [7]): 50
Plant response rating, Waterhemp_RES2 [1, 3]: 80
Plant response rating, Waterhemp_RES2 [1, 4]: 80
Plant response rating, Waterhemp_RES2 [1, 5]: 95
Plant response rating, Waterhemp_RES2 [1, 7]: 75
Plant response rating, Waterhemp_RES1 [2, 3]: 80
Plant response rating, Waterhemp_RES1 [2, 4]: 70
Plant response rating, Waterhemp_RES1 [2, 5]: 95
Plant response rating, Waterhemp_RES1 [2, 6]: 30
Plant response rating, Waterhemp_RES1 [2, 7]: 60
Plant response rating, Arrowleaf Sida (arrowleaf sida; [3]): 70
Plant response rating, Arrowleaf Sida (arrowleaf sida; [4]): 80
Plant response rating, Arrowleaf Sida (arrowleaf sida; [5]): 90
Plant response rating, Arrowleaf Sida (arrowleaf sida; [6]): 50
Plant response rating, Arrowleaf Sida (arrowleaf sida; [7]): 60
Plant response rating, Sandbur (sandbur; [3]): 0
Plant response rating, Sandbur (sandbur; [4]): 0
Plant response rating, Sandbur (sandbur; [5]): 0
Plant response rating, Sandbur (sandbur; [6]): 0
Plant response rating, Sandbur (sandbur; [7]): 0
Plant response rating, Soybean (soybean; [3]): 95
Plant response rating, Soybean (soybean; [4]): 98
Plant response rating, Soybean (soybean; [5]): 98
Plant response rating, Soybean (soybean; [6]): 30
Plant response rating, Soybean (soybean; [7]): 60
Plant response rating, Beggarticks (hairy beggarticks; [3]): 60
Plant response rating, Beggarticks (hairy beggarticks; [4]): 75
Plant response rating, Beggarticks (hairy beggarticks; [5]): 85
Plant response rating, Beggarticks (hairy beggarticks; [6]): 40
Plant response rating, Beggarticks (hairy beggarticks; [7]): 50
